According to patent US9322034B2, “Compositions and methods for detecting and modulating cell death by a translation regulated gene expression system” (Wayne State University, priority 2007, dated 2016):

System: HEK293 cells transformed with the CMV-EYFP, TRplp-EYFP or TRdm-EYFP expression cassettes
Test: Cytotoxicity assay by fluorescent microscopy, EYFP fluorescent cell counts
Format: cell-based, human
Settings: 5 micromolar
From the text: Fluorescence of single cells, tissues or cell suspensions can be detected and quantitated by several means such as visual inspection under a microscope, automated or semiautomated fluorescence imaging, flow cytometry, fluorescence spectroscopy in a fluorometer or in a microplate reader, using an appropriate filter set. For this example, visual inspection under a microscope (Nikon TE2000-S) was used to validate TR translational regulation in stressed and dying HEK293 cells expressing the TRplp-EYFP, TRdm-EYFP, TRplp-fLUC and TRdm-fLUC mRNAs.
In this study, HEK293 cells transformed with the CMV-EYFP, TRplp-EYFP or TRdm-EYFP expression cassettes are directly visualized following translation of the spontaneously fluorescent EYFP protein. One day prior to toxin addition, 200,000 cells (HEK293, HEK293 CMV-EYFP, HEK293 TRplp-EYFP or HEK293 TRdm-EYFP) are plated into a six-well tray containing a flame sterilized glass slide. […] Slides were fixed for 10 min in 4% paraformaldehyde, washed extensively with 1×PBS and mounted for fluorescence microscopy.
Fluorescent cell counts are performed on the 6 hr and 10 hr timepoints using an EYFP-selective filter set (Nikon) and are shown in FIG. 7. In untreated cell cultures, the frequency of EYFP-positive cells range from 1.5-2.5%, which is consistent with the frequency of nonviable cells in these cultures, as determined by Trypan blue staining. […]

CNc1ccc2oc(C[C@H]3O[C@@]4(CC[C@H]3C)O[C@H]([C@H](C)C(=O)c3ccc[nH]3)[C@H](C)C[C@H]4C)nc2c1C(=O)O [calcium ionophore A23187]
change in the number of fluorescent cells (HEK293 or HEK CMV-EYFP cells): no significant change | frequency of fluorescent cells, rise in % of untreated control cultures (TRplp-EYFP expressing cells, 6 hr and 10 hr): 1000-2300%
